Experiments:
[1] = biological target: T1, serotoninergic 5-HT2A receptor (Homo sapiens, UniProt P28223); assay: Binding assay 5-HT2A (h), [3H]ketanserin, HEK-293 cells; set-up: expressed in transfected cells; host or cells: HEK-293 cells; conditions: read-out: 5-HT2A
Method in brief: (§1)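 Binding read by scintillation counting. Non-specific component defined by excess unlabelled ligand and removed from total counts. Compounds at 1×10^−6 M.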

[2] = biological target: T2, serotonine transporter (SERT) receptor (Homo sapiens, UniProt P31645); assay: Binding assay SERT (h), [3H]imipramine, CHO cells; conditions: read-out: SERT [%]
T2 construct: expressed in transfected cells; host or cells: CHO cells
T2 sequence (P31645 whole entry): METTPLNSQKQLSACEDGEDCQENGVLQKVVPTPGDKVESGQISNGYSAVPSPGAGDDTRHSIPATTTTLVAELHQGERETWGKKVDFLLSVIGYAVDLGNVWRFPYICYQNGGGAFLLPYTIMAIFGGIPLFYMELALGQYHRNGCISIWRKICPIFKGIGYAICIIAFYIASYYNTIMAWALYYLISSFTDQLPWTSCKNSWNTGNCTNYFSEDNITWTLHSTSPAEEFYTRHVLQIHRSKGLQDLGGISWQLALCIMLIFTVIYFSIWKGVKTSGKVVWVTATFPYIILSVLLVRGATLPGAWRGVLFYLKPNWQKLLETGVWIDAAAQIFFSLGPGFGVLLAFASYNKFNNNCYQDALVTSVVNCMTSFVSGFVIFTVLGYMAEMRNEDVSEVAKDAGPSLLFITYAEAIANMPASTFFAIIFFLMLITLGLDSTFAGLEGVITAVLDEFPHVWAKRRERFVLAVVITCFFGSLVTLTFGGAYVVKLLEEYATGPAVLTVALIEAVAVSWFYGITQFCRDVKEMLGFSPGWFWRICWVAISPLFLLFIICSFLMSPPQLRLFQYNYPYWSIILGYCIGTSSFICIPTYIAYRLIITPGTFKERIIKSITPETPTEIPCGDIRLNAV
Method in brief: as §1

[3] = biological target: T3, serotoninergic receptor 5-HT2C (Homo sapiens, UniProt P28335); assay: Binding assay 5-HT2C (h), [3H]mesulergine, HEK-293 cells; conditions: read-out: 5-HT2C [%]
T3 construct: expressed in transfected cells; host or cells: HEK-293 cells
T3 sequence (P28335 33-458): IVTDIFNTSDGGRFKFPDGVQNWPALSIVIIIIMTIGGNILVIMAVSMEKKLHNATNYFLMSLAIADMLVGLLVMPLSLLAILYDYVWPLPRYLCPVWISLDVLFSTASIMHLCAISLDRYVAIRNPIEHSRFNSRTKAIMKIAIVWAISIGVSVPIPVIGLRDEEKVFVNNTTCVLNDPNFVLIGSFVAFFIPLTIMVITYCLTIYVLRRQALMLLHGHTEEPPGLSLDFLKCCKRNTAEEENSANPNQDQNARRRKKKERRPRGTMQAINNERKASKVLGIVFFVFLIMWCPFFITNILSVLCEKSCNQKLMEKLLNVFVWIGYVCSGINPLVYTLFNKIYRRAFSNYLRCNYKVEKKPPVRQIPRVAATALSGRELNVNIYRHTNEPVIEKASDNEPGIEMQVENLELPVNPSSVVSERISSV
Method in brief: as §1

[4] = tested on: sigma σ receptor; assay: Binding assay σ (non-selective), [3H]DTG, rat cerebral cortex; conditions: percent inhibition of control specific binding; compounds tested at 1×10^−6 M
Method in brief: as §1

[5] = biological target: histaminergic H1 receptor (Homo sapiens, UniProt P35367); assay: Binding assay H1 (h), [3H]pyrilamine, HEK-293 cells; set-up: expressed in transfected cells; host or cells: HEK-293 cells; conditions: read-out: H1 [%]
Chain of histaminergic H1 receptor (P35367 whole entry): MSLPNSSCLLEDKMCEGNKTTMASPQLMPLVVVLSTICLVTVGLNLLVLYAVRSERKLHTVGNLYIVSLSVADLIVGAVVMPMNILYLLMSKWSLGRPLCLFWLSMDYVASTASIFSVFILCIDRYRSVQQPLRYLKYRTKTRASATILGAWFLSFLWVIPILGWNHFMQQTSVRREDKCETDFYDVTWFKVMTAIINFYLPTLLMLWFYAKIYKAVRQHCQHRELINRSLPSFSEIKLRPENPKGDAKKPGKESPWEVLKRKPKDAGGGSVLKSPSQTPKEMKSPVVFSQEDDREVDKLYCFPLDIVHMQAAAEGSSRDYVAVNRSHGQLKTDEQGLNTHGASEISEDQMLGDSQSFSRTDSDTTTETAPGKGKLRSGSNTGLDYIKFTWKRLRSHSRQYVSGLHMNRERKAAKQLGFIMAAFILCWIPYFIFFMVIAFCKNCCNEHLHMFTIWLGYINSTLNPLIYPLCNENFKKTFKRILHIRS
Method in brief: as §1

[6] = biological target: T4, dopaminergic D2 receptor (Homo sapiens, UniProt P14416); assay: Binding assay D2S (h), [3H]methyl-spiperone, HEK-293 cells; set-up: expressed in transfected cells; host or cells: HEK-293 cells; conditions: read-out: D2 [%]
Method in brief: as §1
Target sequence in this assay (P14416 1-414 isoform P14416-2): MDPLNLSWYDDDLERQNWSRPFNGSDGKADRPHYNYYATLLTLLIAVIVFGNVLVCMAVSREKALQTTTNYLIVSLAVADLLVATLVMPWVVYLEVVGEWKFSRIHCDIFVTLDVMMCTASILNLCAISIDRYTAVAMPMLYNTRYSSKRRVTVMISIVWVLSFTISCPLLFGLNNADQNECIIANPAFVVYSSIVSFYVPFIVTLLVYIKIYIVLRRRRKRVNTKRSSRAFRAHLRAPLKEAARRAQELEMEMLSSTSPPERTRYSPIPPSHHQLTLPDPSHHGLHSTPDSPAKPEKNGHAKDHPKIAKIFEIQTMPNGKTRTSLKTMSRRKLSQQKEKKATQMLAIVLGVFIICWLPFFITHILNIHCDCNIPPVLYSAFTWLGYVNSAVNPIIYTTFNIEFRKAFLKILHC

[7] = biological target: dopaminergic D3 receptor (Homo sapiens, UniProt P35462); assay: Binding assay D3 (h), [3H]methyl-spiperone, CHO cells; set-up: expressed in transfected cells; host or cells: CHO cells; conditions: read-out: D3 [%]
Chain of dopaminergic D3 receptor (P35462 whole entry): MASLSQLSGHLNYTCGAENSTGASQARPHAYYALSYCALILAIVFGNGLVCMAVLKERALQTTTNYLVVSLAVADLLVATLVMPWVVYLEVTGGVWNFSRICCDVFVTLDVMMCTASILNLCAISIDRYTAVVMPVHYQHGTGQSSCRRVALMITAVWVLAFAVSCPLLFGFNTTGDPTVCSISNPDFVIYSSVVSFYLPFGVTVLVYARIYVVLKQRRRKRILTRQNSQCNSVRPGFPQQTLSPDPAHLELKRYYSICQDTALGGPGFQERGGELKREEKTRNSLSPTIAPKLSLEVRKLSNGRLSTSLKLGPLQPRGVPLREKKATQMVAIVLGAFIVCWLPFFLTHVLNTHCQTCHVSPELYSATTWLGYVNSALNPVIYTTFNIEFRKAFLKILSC
Method in brief: as §1

[8] = biological target: T5, serotoninergic 5-HT1A receptor (Homo sapiens, UniProt P08908); assay: Binding assay 5-HT1A (h), [3H]8-OH-DPAT, HEK-293 cells; set-up: expressed in transfected cells; host or cells: HEK-293 cells; conditions: read-out: 5-HT1A
T5 sequence (P08908 1-422): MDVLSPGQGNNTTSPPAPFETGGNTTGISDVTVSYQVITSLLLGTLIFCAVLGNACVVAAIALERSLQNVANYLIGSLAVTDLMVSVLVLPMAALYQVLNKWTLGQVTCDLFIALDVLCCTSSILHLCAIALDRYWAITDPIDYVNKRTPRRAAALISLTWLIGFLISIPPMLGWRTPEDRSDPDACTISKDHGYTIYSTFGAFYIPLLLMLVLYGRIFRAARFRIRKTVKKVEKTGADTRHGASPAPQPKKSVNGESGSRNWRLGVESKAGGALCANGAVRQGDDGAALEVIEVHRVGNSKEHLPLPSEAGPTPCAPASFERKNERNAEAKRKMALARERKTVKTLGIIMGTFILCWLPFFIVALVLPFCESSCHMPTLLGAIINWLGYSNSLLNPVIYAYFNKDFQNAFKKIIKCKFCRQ
Method in brief: as §1

[9] = tested on: adrenergic α1 receptor; assay: Binding assay α1 (non-selective), [3H]prazosin, rat cerebral cortex; conditions: percent inhibition of control specific binding; compounds tested at 1×10^−6 M
Method in brief: as §1

[10] = biological target: T6, adrenergic α2C receptor (Homo sapiens, UniProt P18825); assay: Binding assay α2C (h), [3H]RX 821002, CHO cells; set-up: expressed in transfected cells; host or cells: CHO cells; conditions: read-out: α2C [%]
T6 sequence (P18825 1-462): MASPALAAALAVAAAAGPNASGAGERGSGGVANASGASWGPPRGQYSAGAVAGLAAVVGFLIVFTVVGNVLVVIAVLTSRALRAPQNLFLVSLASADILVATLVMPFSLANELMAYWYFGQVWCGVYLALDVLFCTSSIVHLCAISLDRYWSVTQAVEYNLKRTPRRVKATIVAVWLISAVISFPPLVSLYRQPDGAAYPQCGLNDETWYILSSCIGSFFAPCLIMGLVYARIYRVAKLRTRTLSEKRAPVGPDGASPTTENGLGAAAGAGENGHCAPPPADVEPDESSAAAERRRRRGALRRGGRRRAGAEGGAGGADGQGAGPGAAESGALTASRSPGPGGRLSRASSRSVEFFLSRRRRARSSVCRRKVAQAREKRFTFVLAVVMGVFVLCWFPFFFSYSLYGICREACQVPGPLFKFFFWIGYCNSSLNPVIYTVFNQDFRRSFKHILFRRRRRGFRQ
Method in brief: as §1

[11] = biological target: T7, muscarinic M3 receptor (Homo sapiens, UniProt P20309); assay: Binding assay M3 (h), [3H]4-DAMP, CHO cells; conditions: read-out: M3 [%]
T7 construct: expressed in transfected cells; host or cells: CHO cells
T7 sequence (P20309 whole entry): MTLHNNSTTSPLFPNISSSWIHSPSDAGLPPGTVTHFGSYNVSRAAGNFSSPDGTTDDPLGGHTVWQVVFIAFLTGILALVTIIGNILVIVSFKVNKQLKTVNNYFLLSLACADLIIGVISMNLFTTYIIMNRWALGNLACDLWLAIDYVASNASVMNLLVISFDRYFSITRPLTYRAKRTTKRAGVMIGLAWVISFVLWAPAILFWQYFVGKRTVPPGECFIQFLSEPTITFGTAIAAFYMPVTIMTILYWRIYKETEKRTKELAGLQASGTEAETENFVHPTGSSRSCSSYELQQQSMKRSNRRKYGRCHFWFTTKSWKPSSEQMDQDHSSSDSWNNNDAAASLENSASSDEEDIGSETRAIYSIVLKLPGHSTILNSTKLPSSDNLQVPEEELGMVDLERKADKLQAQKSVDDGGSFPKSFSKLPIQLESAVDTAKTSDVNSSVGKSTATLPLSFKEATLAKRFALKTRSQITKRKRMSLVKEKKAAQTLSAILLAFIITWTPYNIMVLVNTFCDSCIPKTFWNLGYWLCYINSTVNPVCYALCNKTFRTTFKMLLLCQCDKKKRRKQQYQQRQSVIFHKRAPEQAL
Method in brief: as §1

[12] = biological target: T8, serotoninergic 5-HT6 receptor (Homo sapiens, UniProt P50406); assay: Cellular functional assay, serotoninergic 5-HT6 receptor (agonism/antagonism); format: cell-based; conditions: for activation at 1 µM: agonist effect, percent of control specific agonist response, compounds tested at 1×10^−6M, read-out: 5-HT6-ag [%]; for inhibition at 1 µM: read-out: 5-HT6-antag. [%]
T8 sequence (P50406 whole entry): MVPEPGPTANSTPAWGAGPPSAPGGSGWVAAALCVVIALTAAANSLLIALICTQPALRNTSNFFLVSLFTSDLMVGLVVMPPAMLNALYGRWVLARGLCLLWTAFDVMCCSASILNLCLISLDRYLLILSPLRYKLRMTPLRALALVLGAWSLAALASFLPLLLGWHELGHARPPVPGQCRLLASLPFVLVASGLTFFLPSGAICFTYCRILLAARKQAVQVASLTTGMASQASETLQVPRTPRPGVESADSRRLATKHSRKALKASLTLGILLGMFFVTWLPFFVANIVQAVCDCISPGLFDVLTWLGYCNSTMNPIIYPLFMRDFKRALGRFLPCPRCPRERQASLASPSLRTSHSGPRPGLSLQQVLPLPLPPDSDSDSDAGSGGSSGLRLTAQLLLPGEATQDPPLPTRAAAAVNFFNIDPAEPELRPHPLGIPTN
Protocol: (§2) The compounds were tested at the concentration of 1×10^−6M.
(§3) In the Tables ag refers to agonism, and antag to antagonism).

[13] = biological target: T9, serotoninergic 5-HT7 receptor (Homo sapiens, UniProt P34969); assay: Binding assay 5-HT7 (h), [3H]LSD, CHO cells; set-up: expressed in transfected cells; host or cells: CHO cells; conditions: read-out: 5-HT7
T9 sequence (P34969 whole entry): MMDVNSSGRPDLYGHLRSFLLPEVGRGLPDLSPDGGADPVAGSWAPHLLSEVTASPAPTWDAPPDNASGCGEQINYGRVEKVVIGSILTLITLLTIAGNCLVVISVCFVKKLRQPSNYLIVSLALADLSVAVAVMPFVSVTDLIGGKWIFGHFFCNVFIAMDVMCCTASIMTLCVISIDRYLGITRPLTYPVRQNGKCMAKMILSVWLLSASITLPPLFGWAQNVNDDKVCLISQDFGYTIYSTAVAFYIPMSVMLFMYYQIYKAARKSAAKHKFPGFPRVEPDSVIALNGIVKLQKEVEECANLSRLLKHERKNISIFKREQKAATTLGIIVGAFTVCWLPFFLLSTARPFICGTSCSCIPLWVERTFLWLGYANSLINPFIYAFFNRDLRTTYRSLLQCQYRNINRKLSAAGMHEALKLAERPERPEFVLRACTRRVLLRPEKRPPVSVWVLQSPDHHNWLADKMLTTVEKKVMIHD
Method in brief: as §1

[14] = biological target: T8, serotoninergic 5-HT6 receptor; assay: Binding assay 5-HT6 (h), [3H]LSD, CHO cells; set-up: expressed in transfected cells; host or cells: CHO cells; conditions: read-out: 5-HT6
Method in brief: as §1

[15] = biological target: T9, serotoninergic 5-HT7 receptor; assay: Cellular functional assay, serotoninergic 5-HT7 receptor (agonism/antagonism); format: cell-based; conditions: for activation at 1 µM: agonist effect, percent of control specific agonist response, compounds tested at 1×10^−6M, read-out: 5-HT7-ag [%]; for inhibition at 1 µM: read-out: 5-HT7-antag. [%]
Protocol: as §2, §3

[16] = biological target: T4, dopaminergic D2 receptor; assay: Cellular functional assay, dopaminergic D2 receptor (agonism/antagonism); format: cell-based; conditions: HEK293; for activation at 1 µM: agonist effect, percent of control specific agonist response (3 μM dopamine for control), 1×10^−6 M, D2S (h), HEK-293 cells, read-out: D2-ag [%]; for inhibition at 1 µM: read-out: D2-antag. [%]
Protocol: as §2, §3
Target sequence in this assay (P14416 whole entry): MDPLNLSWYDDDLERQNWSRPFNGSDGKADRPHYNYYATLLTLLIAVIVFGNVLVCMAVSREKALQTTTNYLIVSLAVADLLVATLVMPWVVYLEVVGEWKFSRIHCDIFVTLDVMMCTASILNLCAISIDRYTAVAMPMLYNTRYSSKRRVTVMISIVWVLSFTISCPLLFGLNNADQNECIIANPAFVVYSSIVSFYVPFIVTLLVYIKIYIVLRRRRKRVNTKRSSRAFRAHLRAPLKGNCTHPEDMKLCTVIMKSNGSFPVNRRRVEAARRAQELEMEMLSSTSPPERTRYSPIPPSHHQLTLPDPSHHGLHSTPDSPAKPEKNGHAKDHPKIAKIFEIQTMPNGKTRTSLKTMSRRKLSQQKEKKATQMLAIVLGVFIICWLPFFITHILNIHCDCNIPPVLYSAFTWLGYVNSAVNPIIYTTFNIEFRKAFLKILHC

[17] = biological target: T1, serotoninergic 5-HT2A receptor; assay: Cellular functional assay, serotoninergic 5-HT2A receptor (agonism/antagonism); format: cell-based
Protocol: […]. The compounds were tested at the concentration of 1×10^−6M.
Conditions and methodology (by reference to the literature) of cellular functional assays are given in Table 13 and the tests results for representative compounds are given in Table 14 (dopaminergic receptor D2), in Table 15 (dopaminergic receptor D3), in Table 16 (serotoninergic receptor 5-HT1A), in Table 17 (serotoninergic receptor 5-HT2A), in Table 18 (serotoninergic receptor 5-HT6), in Table 19 (serotoninergic receptor 5-HT7), in Table 20 (adrenergic α1 receptor), in Table 21 (adrenergic α2C receptor), in Table 22 (histaminergic H1 receptor) and in Table 23 (serotoninergic 5-HT2C receptor). In the Tables ag refers to agonism, and antag to antagonism).

T1 sequence (P28223 whole entry): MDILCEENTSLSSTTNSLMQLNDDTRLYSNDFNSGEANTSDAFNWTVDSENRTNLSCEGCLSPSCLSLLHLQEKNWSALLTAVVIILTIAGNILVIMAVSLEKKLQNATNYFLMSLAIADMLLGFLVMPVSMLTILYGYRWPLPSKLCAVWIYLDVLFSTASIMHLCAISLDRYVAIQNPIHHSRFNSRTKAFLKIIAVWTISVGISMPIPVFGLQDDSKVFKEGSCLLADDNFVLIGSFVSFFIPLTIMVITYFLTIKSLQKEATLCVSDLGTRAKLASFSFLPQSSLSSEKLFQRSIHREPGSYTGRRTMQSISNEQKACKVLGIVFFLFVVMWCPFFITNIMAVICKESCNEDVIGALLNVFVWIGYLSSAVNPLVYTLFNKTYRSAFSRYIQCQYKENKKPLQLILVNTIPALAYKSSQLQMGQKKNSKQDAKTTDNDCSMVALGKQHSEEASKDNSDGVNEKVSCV

`Cc1cccc(S(=O)(=O)NCCCCN2CCC(c3noc4cc(F)ccc34)CC2)c1` [Compound 19, N-[4-[4-(6-Fluoro-1,2-benzoxazol-3-yl)piperidin-1-yl]butyl]-3-methylbenzenesulphonamide] was tested, and the inhibition at 1 µM [1] was 100%, the inhibition at 1 µM [2] was 8% and the inhibition at 1 µM [3] was 56%. The “σ [%]” value [4] was 92%, the inhibition at 1 µM [5] was 79% and the inhibition at 1 µM [6] was 97%. For the same compound, the inhibition at 1 µM [7] was 90%, the inhibition at 1 µM [8] was 64% and the “α1 [%]” value [9] was 99%. For the same compound, the inhibition at 1 µM [10] was 100%, the inhibition at 1 µM [11] was 9% and the activation at 1 µM [12] was -1%. For the same compound, the inhibition at 1 µM [12] was 23%, the inhibition at 1 µM [13] was 100% and the inhibition at 1 µM [14] was 69%. The activation at 1 µM [15] was -1% and the inhibition at 1 µM [15] was 99%.
With `Cc1cccc(S(=O)(=O)NCCN2CCC(c3noc4cc(F)ccc34)CC2)c1` [Compound 25, N-[2-[4-(6-Fluoro-1,2-benzoxazol-3-yl)piperidin-1-yl]ethyl]-3-methylbenzenesulphonamide] the inhibition at 1 µM [1] was 100%, the inhibition at 1 µM [2] was 20% and the inhibition at 1 µM [3] was 32%. For the same compound, the “σ [%]” value [4] was 76%, the inhibition at 1 µM [5] was 62% and the inhibition at 1 µM [6] was 96%. The inhibition at 1 µM [7] was 94%, the inhibition at 1 µM [8] was 92% and the “α1 [%]” value [9] was 98%. For the same compound, the inhibition at 1 µM [10] was 98%, the inhibition at 1 µM [11] was 6% and the activation at 1 µM [12] was 0%. The inhibition at 1 µM [12] was 6%, the inhibition at 1 µM [13] was 98% and the inhibition at 1 µM [14] was 71%. The activation at 1 µM [15] was -1% and the inhibition at 1 µM [15] was 97%.
`Cc1cccc(S(=O)(=O)NCCCCN2CCN(c3noc4ccccc34)CC2)c1` [Compound 15, N-(4-(4-(1,2-Benzoxazol-3-yl)piperazin-1-yl)butyl)-3-methylbenzenesulphonamide] gave an inhibition at 1 µM [1] of 99%, an inhibition at 1 µM [2] of -3% and an inhibition at 1 µM [3] of 23%. The “σ [%]” value [4] was 47%, the inhibition at 1 µM [5] was 84% and the inhibition at 1 µM [6] was 90%. The inhibition at 1 µM [7] was 88%, the activation at 1 µM [16] was 2% and the inhibition at 1 µM [16] was 88%. The inhibition at 1 µM [8] was 86%, the “α1 [%]” value [9] was 102% and the activation at 1 µM ([17]; read-out: 5-HT2A -ag [%]) was -1%. It also gave an inhibition at 1 µM ([17]; read-out: 5-HT2A -antag [%]) of 100%, an inhibition at 1 µM [10] of 98% and an inhibition at 1 µM [11] of -9%. For the same compound, the activation at 1 µM [12] was 2%, the inhibition at 1 µM [12] was 21% and the inhibition at 1 µM [13] was 100%. For the same compound, the inhibition at 1 µM [14] was 71%, the activation at 1 µM [15] was 0% and the inhibition at 1 µM [15] was 96%.
With `Cc1cccc(S(=O)(=O)NCCN2CCN(c3nsc4ccccc34)CC2)c1` [Compound 11, N-(2-(4-(1,2-Benzothiazol-3-yl)piperazin-1-yl)ethyl)-3-methylbenzenesulphonamide] the inhibition at 1 µM [1] was 99%, the inhibition at 1 µM [2] was 1% and the inhibition at 1 µM [3] was 40%. For the same compound, the “σ [%]” value [4] was 21%, the inhibition at 1 µM [5] was 74% and the inhibition at 1 µM [6] was 89%. The inhibition at 1 µM [7] was 91%, the inhibition at 1 µM [8] was 99% and the “α1 [%]” value [9] was 85%. For the same compound, the inhibition at 1 µM [10] was 94%, the inhibition at 1 µM [11] was -6% and the activation at 1 µM [12] was -1%. The inhibition at 1 µM [12] was -10%, the inhibition at 1 µM [13] was 99% and the inhibition at 1 µM [14] was 54%. For the same compound, the activation at 1 µM [15] was 0% and the inhibition at 1 µM [15] was 85%.
In the case of `O=c1[nH]c2ccc(S(=O)(=O)NCCN3CCN(c4nsc5ccccc45)CC3)cc2o1` [Compound 12, N-(2-(4-(1,2-Benzothiazol-3-yl)piperazin-1-yl)ethyl)-2-oxo-3H-1,3-benzoxazole-6-sulphonamide], the inhibition at 1 µM [1] was 99%, the inhibition at 1 µM [2] was 7% and the inhibition at 1 µM [3] was 17%. For the same compound, the “σ [%]” value [4] was 4%, the inhibition at 1 µM [5] was 79% and the inhibition at 1 µM [6] was 93%. The inhibition at 1 µM [7] was 92%, the inhibition at 1 µM [8] was 99% and the “α1 [%]” value [9] was 67%. It also gave an inhibition at 1 µM [10] of 83%, an inhibition at 1 µM [11] of -9% and an activation at 1 µM [12] of -1%. The inhibition at 1 µM [12] was -2%, the inhibition at 1 µM [13] was 89% and the inhibition at 1 µM [14] was 80%. It also gave an activation at 1 µM [15] of -1% and an inhibition at 1 µM [15] of 68%.
With `O=S(=O)(NCCCCN1CCN(c2cccc3[nH]ccc23)CC1)c1csc2ccccc12` [Compound 32, N-{4-[4-(1H-Indol-4-yl)piperazin-1-yl]butyl}-1-benzothiophene-3-sulphonamide] the inhibition at 1 µM [6] was 101%, the activation at 1 µM [16] was 35% and the inhibition at 1 µM [16] was 89%. The inhibition at 1 µM [14] was 23%.
